The experiment concerns the target SARS-CoV-2 M^pro (Severe acute respiratory syndrome coronavirus 2 (2019-nCoV) (SARS-CoV-2), UniProt P0DTD1). Description: biochemical. The settings on record: for IC50: compounds evaluated at 0.015-300 μM, read-out: IC50.
Where [1] appears, read: read-out: Activity (% enzyme activity by fluorescence relative to initial enzyme activity), compound at 17 μM, duplicates, 20 min pre-incubation.
Setting [2] is: compound at 17 μM, duplicates, 20 min pre-incubation.
[3] abbreviates: compound at 17 μM, duplicates, 20 min pre-incubation, read-out: Activity (% enzyme activity by fluorescence relative to initial enzyme activity).

The values below come from patent US20240016777A1, “COMPOUNDS AND METHODS FOR TREATING VIRAL INFECTIONS” (priority 2020, published 2024).

Read-outs that look alike come from different tables or passages of the source.

As for `CC(C)=CCc1c(O)cc(O)c2c1O[C@H](c1ccccc1)[C@@H](O)C2=O` [Glepidotin B], the remaining activity at 17 µM under setting [1] is more than 80%. Same read-out and setting: under `COc1c(CC=C(C)C)c(O)cc(O)c1-c1coc2cc(O)ccc2c1=O` [Glicoricone] stands more than 80%; under `CC(C)=CCc1cc(-c2oc3cc(O)c(CC=C(C)C)c(O)c3c(=O)c2O)ccc1O` [Glyasperin A], more than 80%; under `COc1c(CC=C(C)C)c(O)cc2c1CC(c1ccc(O)cc1O)CO2` (stereo not shown) [Glyasperin C], more than 80%. On the same count and under the same terms, under `COc1cc2c(c(OC)c1CC=C(C)C)C[C@H](c1ccc(O)cc1O)CO2` [Glyasperin D] stands 10 to 80%; under `COc1ccc(-c2oc3c(CC=C(C)C)c(O[C@@H]4O[C@H](CO)[C@@H](O)[C@H](O)[C@H]4O)cc(O)c3c(=O)c2O[C@@H]2O[C@@H](C)[C@H](O)[C@@H](O)[C@H]2O)cc1` [Icariin], 10 to 80%; under `COc1ccc(-c2oc3c(CC=C(C)C)c(O[C@@H]4O[C@H](CO)[C@@H](O)[C@H](O)[C@H]4O)cc(O)c3c(=O)c2O)cc1` [Icariside I], more than 80%. As to `COc1ccc(-c2oc3c(CC=C(C)C)c(O)cc(O)c3c(=O)c2O)cc1` [Icaritin], the remaining activity at 17 µM under setting [1] is more than 80%. For the compound `CC(C)=CCc1c(O)cc(O)c2c(=O)c(O[C@@H]3O[C@@H](C)[C@H](O)[C@@H](O)[C@H]3O[C@@H]3OC[C@@H](O)[C@H](O)[C@H]3O)c(-c3ccc(O)cc3)oc12` [Ikarisoside F], the remaining activity at 17 µM under setting [1] is 10 to 80%. On to `CC(C)=CCc1cc(-c2coc3cc(O)c(CC=C(C)C)c(O)c3c2=O)cc(O)c1O` [Imbricataflavone A], for which the remaining activity at 17 µM under setting [1] is more than 80%. For `COc1cc(O)c2c(=O)c(O)c(-c3ccc(O)cc3)oc2c1CC=C(C)C` [Isoanhydroicaritin], the remaining activity at 17 µM under setting [1] was more than 80%.

Regarding `CC(C)=CCc1c(O)ccc2c1O[C@H](c1ccc(O)cc1)CC2=O` [Isobavachin], under setting [1], the remaining activity at 17 µM is more than 80%. As for `CC(C)=CCc1c(O)cc2occ(-c3ccc4c(c3)C=CC(C)(C)O4)c(=O)c2c1O` [Isochandalone], the remaining activity at 17 µM under setting [1] was more than 80%. On to `C=C(C)C(O)Cc1c(O)c(CC=C(C)C)c2occ(-c3ccc(O)cc3)c(=O)c2c1O` (stereo not shown) [Isoerysenegalensein E], for which the remaining activity at 17 µM under setting [1] was more than 80%. As to `C=C(C)[C@H](CC=C(C)C)Cc1c(O)cc(O)c2c1O[C@H](c1ccc(O)cc1OC)CC2=O` [Isokurarinone], the “Activity (% enzyme activity by fluorescence relative to initial enzyme activity)” value under setting [2] was “++ (enzyme activity as indicated by fluorescence measurements ≥10% and <80%)”. For `CC(C)=CCc1cc(-c2oc3cc(O)cc(O)c3c(=O)c2O)ccc1O` [Isolicoflavonol], the remaining activity at 17 µM under setting [1] was in the range of 10 to 80%.

In the case of `O=c1cc(-c2ccc(O)cc2)oc2c([C@@H]3O[C@H](CO)[C@@H](O)[C@H](O)[C@H]3O)c(O)c([C@@H]3OC[C@H](O)[C@H](O)[C@H]3O)c(O)c12` [Isoschaftoside], the concentration for half-maximal inhibition (IC50) was 20 µM. The “Activity (% enzyme activity by fluorescence relative to initial enzyme activity)” value under setting [2] is “++ (enzyme activity as indicated by fluorescence measurements ≥10% and <80%)”. Take `CC(C)=CCc1cc(-c2coc3cc(O)cc(O)c3c2=O)ccc1O` [Isowighteone]: the remaining activity at 17 µM under setting [1] is more than 80%. `COc1cc(O)c(CC=C(C)C)c2c1C(=O)C[C@@H](c1ccc(O)cc1)O2` [Isoxanthohumol]: the remaining activity at 17 µM under setting [3] was more than 80%. `O=c1c(O)c(-c2ccc(O[C@@H]3O[C@H](CO)[C@@H](O)[C@H](O)[C@H]3O)cc2)oc2cc(O)cc(O)c12` [Kaempferol-4′-O-beta-D-glucopyranoside]: the IC50 was determined as 12 µM. The remaining activity at 17 µM under setting [3] lay within 10 to 80%. As for `O=c1c(O)c(-c2ccc(O)cc2)oc2cc(O)cc(O)c12` [Kaempferol], the remaining activity at 17 µM under setting [3] is more than 80%. Consider `CC(C)=CCc1cc([C@@H]2CCc3ccc(O)cc3O2)c(CC=C(C)C)c(O)c1O` [Kazinol A], for which the remaining activity at 17 µM under setting [1] is more than 80%. In the case of `CC(C)=CCc1c([C@@H]2CCc3ccc(O)cc3O2)cc2c(c1O)OC(C)(C)C=C2` [Kazinol B], under setting [1], the remaining activity at 17 µM was more than 80%.
